Laboratory results from patent US10912780B2, “Heterocyclic compounds useful as anti-bacterial agents and method for production thereof” (Bugworks Research, Inc., priority 2017, dated 2021).
Converted amounts (≈) assume the structure as drawn.

Tests used:
Assay in all cases: Minimum Inhibitory Concentration (MIC) in LB media;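 on Minimum Inhibitory Concentration A. baumannii ATCC 19606: twofold compound dilutions from DMSO stocks in LB broth microplates, overnight incubation at 37 °C, growth read by absorbance at 600 nm, with DMSO and sterility controls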
Assay type in all cases: cell-based
[1] = system: Klebsiella pneumoniae ATCC 13883; settings: for MIC: Klebsiella pneumoniae, ATCC13883, read-out: Minimum Inhibitory Concentration K. pneumoniae ATCC 13883
Source text: (§1) The compounds of Formula (I) are of interest due to their potent antibacterial effects. The ability of the invention compounds disclosed herein to achieve an antibacterial effect may be evaluated with regard to their ability to inhibit the growth of bacterial species like Escherichia coli ATCC 25922, Staphylococcus aureus ATCC 29213, Klebsiella pneumoniae ATCC 13883, Acinetobacter baumannii ATCC 19606, Pseudomonas aeruginosa ATCC 27853, Enterococcus faecalis ATCC 29212 and Enterococcus faecalis ATCC 29212 using an assay based on the following Minimum Inhibitory Concentration (MIC) protocol:
(§2) The medium sterility is checked by incubating at 37° C. for a period of 48 h.
(§3) Bacterial cultures that are stored as glycerol stocks at −80° C. are sub cultured on LB agar plates to obtain isolated colonies. A single colony of each strain is cultured in LB broth. The cultures are incubated at 37 C, 200 rpm till they reach an optical density (OD at 600 nm) of 0.8 to 1. […] Test compounds are dissolved in dimethyl sulfoxide (DMSO) to a stock concentration of 4 mg/ml. A twofold dilution series of this DMSO stock is prepared in a 96 well V bottom microtitre plate from rows A to H. A 3 μL volume of these dilutions are transferred to a 96-well flat bottom microtitre assay plate. Controls to monitor the effects of DMSO and media sterility are included. Each well is inoculated with 150 μL of the above diluted culture. The plates are incubated at 37° C. overnight in a humidified incubator. The following morning, the plates are read using a Spectrophotometer at 600 nm wavelength. […] The antibacterial activity (MIC) determined against representative Gram positive (S. aureus, E. faecalis) and Gram negative (E.coli, -P. aeruginosa and A. baumannii) pathogen were reported Table 1.

[2] = system: Enterococcus faecalis ATCC 29212; settings: for MIC: Enterococcus faecalis, ATCC29212, read-out: Minimum Inhibitory Concentration E. faecalis ATCC 29212
Source text: as §1, §2, §3

[3] = system: Staphylococcus aureus ATCC 29213; settings: for MIC: Staphylococcus aureus, ATCC29213, read-out: Minimum Inhibitory Concentration S. aureus ATCC 29213
Source text: as §1, §2, §3

[4] = system: Pseudomonas aeruginosa ATCC 27853; settings: for MIC: Pseudomonas aeruginosa, ATCC27853, read-out: Minimum Inhibitory Concentration P. aeruginosa ATCC 27853
Source text: as §1, §2, §3

[5] = system: Escherichia coli ATCC 25922; settings: for MIC: Escherichia coli, ATCC25922, read-out: Minimum Inhibitory Concentration E. coli ATCC 25922
Source text: as §1, §2, §3

[6] = system: Acinetobacter baumannii ATCC 19606; settings: for MIC: Acinetobacter baumannii, ATCC19606;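 on all read-outs here: twofold compound dilutions from DMSO stocks in LB broth microplates, overnight incubation at 37 °C, growth read by absorbance at 600 nm, with DMSO and sterility controls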
Protocol: Bacterial cultures that are stored as glycerol stocks at −80° C. are sub cultured on LB agar plates to obtain isolated colonies. A single colony of each strain is cultured in LB broth. […] Test compounds are dissolved in dimethyl sulfoxide (DMSO) to a stock concentration of 4 mg/ml. A twofold dilution series of this DMSO stock is prepared in a 96 well V bottom microtitre plate from rows A to H. A 3 μL volume of these dilutions are transferred to a 96-well flat bottom microtitre assay plate. Controls to monitor the effects of DMSO and media sterility are included. Each well is inoculated with 150 μL of the above diluted culture. The plates are incubated at 37° C. overnight in a humidified incubator. The following morning, the plates are read using a Spectrophotometer at 600 nm wavelength.

## CS(=O)(=O)CCn1c(=O)ccc2ccc(F)c(CCNC[C@H]3CN(c4ccc5c(n4)NC(=O)CO5)C(=O)O3)c21 [Example 11, (S)-6-(5-(((2-(7-fluoro-1-(2-(methylsulfonyl)ethyl)-2-oxo-1,2-dihydroquinolin-8-yl)ethyl)amino)methyl)-2-oxooxazolidin-3-yl)-2H-pyrido[3,2-b][1,4]oxazin-3(4H)-one]
[1]
  MIC: 0.25 µg/mL (≈ 0.447 µM)
[2]
  MIC: 0.5 µg/mL (≈ 0.894 µM)
[3]
  MIC: 0.03 µg/mL (≈ 0.0536 µM)
[4]
  MIC: 2 µg/mL (≈ 3.57 µM)
[5]
  MIC: 0.25 µg/mL (≈ 0.447 µM)
[6]
  MIC: 0.5 µg/mL (≈ 0.894 µM)

## CCn1c(=O)ccc2ccc(F)c(CCNC[C@H]3CN(c4cnc5c(n4)NC(=O)CO5)C(=O)O3)c21 [Example 26, (S)-6-(5-(((2-(1-ethyl-7-fluoro-2-oxo-1,2-dihydroquinolin-8-yl)ethyl)amino)methyl)-2-oxooxazolidin-3-yl)-2H-pyrazino[2,3-b][1,4]oxazin-3(4H)-one]
[1]
  MIC: 0.03 µg/mL (≈ 0.0622 µM)
[2]
  MIC: 0.03 µg/mL (≈ 0.0622 µM)
[3]
  MIC: ≤ 0.015 µg/mL
[4]
  MIC: 0.5 µg/mL (≈ 1.04 µM)
[5]
  MIC: 0.03 µg/mL (≈ 0.0622 µM)
[6]
  MIC: 0.03 µg/mL (≈ 0.0622 µM)

## Cn1c(=O)ccc2ccc(F)c(C[C@@H](O)CNC[C@H]3CN(c4ccc5c(n4)NC(=O)CO5)C(=O)O3)c21 (single isomer, unassigned) [Example 19]
[1]
  MIC: 0.125 µg/mL (≈ 0.251 µM)
[2]
  MIC: 0.5 µg/mL (≈ 1.01 µM)
[3]
  MIC: 0.25 µg/mL (≈ 0.503 µM)
[4]
  MIC: 2 µg/mL (≈ 4.02 µM)
[5]
  MIC: 0.25 µg/mL (≈ 0.503 µM)
[6]
  MIC: 1 µg/mL (≈ 2.01 µM)

## Cc1nc2ccc(F)c(CCNC[C@@H]3CN(c4ccc5c(n4)NC(=O)CO5)C(=O)O3)c2n(C)c1=O [Example 7, (R)-6-(5-(((2-(6-fluoro-2,4-dimethyl-3-oxo-3,4-dihydroquinoxalin-5-yl)ethyl)amino)methyl)-2-oxooxazolidin-3-yl)-2H-pyrido[3,2-b][1,4]oxazin-3(4H)-one]
[1]
  MIC: 0.25 µg/mL (≈ 0.518 µM)
[2]
  MIC: 0.25 µg/mL (≈ 0.518 µM)
[3]
  MIC: 0.06 µg/mL (≈ 0.124 µM)
[4]
  MIC: 2 µg/mL (≈ 4.15 µM)
[5]
  MIC: 0.125 µg/mL (≈ 0.259 µM)
[6]
  MIC: 0.06 µg/mL (≈ 0.124 µM)

## Cc1cc(=O)n(C)c2c(CCNC[C@H]3CN(c4cnc5c(n4)NC(=O)CO5)C(=O)O3)c(F)ccc12 [Example 28, (S)-6-(5-(((2-(7-fluoro-1,4-dimethyl-2-oxo-1,2-dihydroquinolin-8-yl)ethyl)amino)methyl)-2-oxooxazolidin-3-yl)-2H-pyrazino[2,3-b][1,4]oxazin-3(4H)-one]
[1]
  MIC: 0.06 µg/mL (≈ 0.124 µM)
[2]
  MIC: 0.06 µg/mL (≈ 0.124 µM)
[3]
  MIC: ≤ 0.015 µg/mL
[4]
  MIC: 0.5 µg/mL (≈ 1.04 µM)
[5]
  MIC: 0.06 µg/mL (≈ 0.124 µM)
[6]
  MIC: 0.125 µg/mL (≈ 0.259 µM)

## Cn1c(=O)cnc2ccc(F)c(CCNC[C@H]3CN(c4ncc5c(n4)NC(=O)CO5)C(=O)O3)c21 [Example 17, (S)-2-(5-(((2-(6-fluoro-4-methyl-3-oxo-3,4-dihydroquinoxalin-5-yl)ethyl)amino)methyl)-2-oxooxazolidin-3-yl)-6H-pyrimido[5,4-b][1,4]oxazin-7(8H)-one]
[1]
  MIC: 0.25 µg/mL (≈ 0.533 µM)
[2]
  MIC: 0.25 µg/mL (≈ 0.533 µM)
[3]
  MIC: 0.125 µg/mL (≈ 0.266 µM)
[4]
  MIC: 2 µg/mL (≈ 4.26 µM)
[5]
  MIC: 0.125 µg/mL (≈ 0.266 µM)
[6]
  MIC: 1 µg/mL (≈ 2.13 µM)

## Cn1c(=O)ccc2ncc(F)c(CCCNCC3CN(c4ccc5c(n4)NC(=O)CO5)C(=O)O3)c21 (stereo not drawn) [Example 1b, Chiral 6-(5-(((3-(3-fluoro-5-methyl-6-oxo-5,6-dihydro-1,5-naphthyridin-4-yl)propyl)amino)methyl)-2-oxooxazolidin-3-yl)-2H-pyrido[3,2-b][1,4]oxazin-3(4H)-one]
[1]
  Minimum Inhibitory Concentration K. pneumoniae ATCC 13883: <1 µg/mL
[2]
  Minimum Inhibitory Concentration E. faecalis ATCC 29212: <4 µg/mL
[3]
  Minimum Inhibitory Concentration S. aureus ATCC 29213: <4 µg/mL
[4]
  Minimum Inhibitory Concentration P. aeruginosa ATCC 27853: <16 µg/mL
[5]
  Minimum Inhibitory Concentration E. coli ATCC 25922: <0.5 µg/mL
[6]
  Minimum Inhibitory Concentration A. baumannii ATCC 19606: <0.5 µg/mL

## Cn1c(=O)ccc2ncc(F)c(CCNC[C@H]3CN(c4cnc5c(n4)NC(=O)CO5)C(=O)O3)c21 [Example 29, (S)-6-(5-(((2-(3-fluoro-5-methyl-6-oxo-5,6-dihydro-1,5-naphthyridin-4-yl)ethyl)amino)methyl)-2-oxooxazolidin-3-yl)-2H-pyrazino[2,3-b][1,4]oxazin-3(4H)-one]
[1]
  MIC: 0.125 µg/mL (≈ 0.266 µM)
[2]
  MIC: 0.125 µg/mL (≈ 0.266 µM)
[3]
  MIC: 0.03 µg/mL (≈ 0.0639 µM)
[4]
  MIC: 0.5 µg/mL (≈ 1.07 µM)
[5]
  MIC: 0.125 µg/mL (≈ 0.266 µM)
[6]
  MIC: 0.5 µg/mL (≈ 1.07 µM)
